“Also recorded” adds a separate entry of the source. Where two headings read alike, the source gives them in different places.
Tests used:
LPX [1] = target: T1, LPX (Bos taurus, UniProt P80025); assay: LPX-catalyzed oxidation of guaiacol or ABTS; type: biochemical, bovine; details: LPX plus hydrogen peroxide
T1 construct: purchased Sigma Chemical Company
Text: (§1) Materials used in the examples below were obtained from the following sources. Bovine LPX, bovine liver catalase, glucose oxidase, 30% hydrogen peroxide, glucose, guaiacol, ABTS and deuterium oxide were purchased from Sigma Chemical Company. Selenium dioxide, MBI ^13 CH3 I and PBA were purchased from Aldrich Chemical Company and PBA was purified as previously described by Fieset et al., Reagents for Organic Synthesis, Vol. I, pp.135-139, John Wiley and Sons, N.Y. (1967). LPX purity was checked by PAGE, as described by Doerge, D.R., et al. in, Biochem. Pharmacol., Vol.36, pp.972-974 (1986). TPX was purified from hog thyroids obtained from a local slaughterhouse by published procedures. Doerge & Takazowa, Chemical Research in Toxicology, Vol. 3, pp. 98-101 (1990). TPX purity was determined by LC and its concentration determined spectophotometrically. Hydroperoxide concentrations were determined by iodometric titration, as described by Kolthoff, et al., in "Quantitative Chemical Analysis", Macmillan, London, pp.842-860 (1969). […] PPHP and PPA were prepared, purified and analyzed as previously described by Doerge, Biochem, Vol.27, p.11 (1988). […]
(§2) Inhibition of LPX activity by thiones was determined from the kinetics of iodide ion, guaiacol or ABTS oxidation assays conducted at 25° C. Kinetic parameters of suicide inactivation were determined as previously described. […]

LPX [2] = target: T1, LPX; assay: LPX-catalyzed iodide ion oxidation (triiodide formation); type: biochemical, bovine
Text: Materials used in the examples below were obtained from the following sources. Bovine LPX, bovine liver catalase, glucose oxidase, 30% hydrogen peroxide, glucose, guaiacol, ABTS and deuterium oxide were purchased from Sigma Chemical Company. Selenium dioxide, MBI ^13 CH3 I and PBA were purchased from Aldrich Chemical Company and PBA was purified as previously described by Fieset et al., Reagents for Organic Synthesis, Vol. I, pp.135-139, John Wiley and Sons, N.Y. (1967). LPX purity was checked by PAGE, as described by Doerge, D.R., et al. in, Biochem. Pharmacol., Vol.36, pp.972-974 (1986). TPX was purified from hog thyroids obtained from a local slaughterhouse by published procedures. Doerge & Takazowa, Chemical Research in Toxicology, Vol. 3, pp. 98-101 (1990). TPX purity was determined by LC and its concentration determined spectophotometrically. Hydroperoxide concentrations were determined by iodometric titration, as described by Kolthoff, et al., in "Quantitative Chemical Analysis", Macmillan, London, pp.842-860 (1969). MMBI, and BI were synthesized by published procedures as described by Doerge, D.R., Biochem, Vol. 27, pp. 3697-3700 (1988) and were recrystallized from aqueous ethanol. MeBI was purified by distillation and DMeBI^+ was synthesized and purified by recrystallization from ethyl acetate/methanol. 1-^13 C-MMBI was synthesized from ^13 CH3 I according to the procedure disclosed by Doerge, D.R., in, J. Lab. Comp. and Radiopharm., Vol.25, pp.985-990 (1988). PPHP and PPA were prepared, purified and analyzed as previously described by Doerge, Biochem, Vol.27, p.11 (1988). The methyl ester of 1-methyl-benzimidazole-2-sulfinic acid was prepared by addition of hydrogen peroxide (5 equivalents of a 10 M solution) to MMBI (0.1 M) in methanol. […]
as §2

LPX [3] = target: T1, LPX; assay: LPX iodide ion oxidation activity after incubation and dilution; type: biochemical, bovine; details: for remaining activity at 100 µM: 100 μM DMMBI, 100 s at 25° C., 200-fold dilution, n=4, read-out: Rate (% of control)
Text: Materials used in the examples below were obtained from the following sources. Bovine LPX, bovine liver catalase, glucose oxidase, 30% hydrogen peroxide, glucose, guaiacol, ABTS and deuterium oxide were purchased from Sigma Chemical Company. Selenium dioxide, MBI ^13 CH3 I and PBA were purchased from Aldrich Chemical Company and PBA was purified as previously described by Fieset et al., Reagents for Organic Synthesis, Vol. I, pp.135-139, John Wiley and Sons, N.Y. (1967). LPX purity was checked by PAGE, as described by Doerge, D.R., et al. in, Biochem. Pharmacol., Vol.36, pp.972-974 (1986). TPX was purified from hog thyroids obtained from a local slaughterhouse by published procedures. Doerge & Takazowa, Chemical Research in Toxicology, Vol. 3, pp. 98-101 (1990). TPX purity was determined by LC and its concentration determined spectophotometrically. Hydroperoxide concentrations were determined by iodometric titration, as described by Kolthoff, et al., in "Quantitative Chemical Analysis", Macmillan, London, pp.842-860 (1969). MMBI, and BI were synthesized by published procedures as described by Doerge, D.R., Biochem, Vol. 27, pp. 3697-3700 (1988) and were recrystallized from aqueous ethanol. MeBI was purified by distillation and DMeBI^+ was synthesized and purified by recrystallization from ethyl acetate/methanol. 1-^13 C-MMBI was synthesized from ^13 CH3 I according to the procedure disclosed by Doerge, D.R., in, J. Lab. Comp. and Radiopharm., Vol.25, pp.985-990 (1988). PPHP and PPA were prepared, purified and analyzed as previously described by Doerge, Biochem, Vol.27, p.11 (1988). The methyl ester of 1-methyl-benzimidazole-2-sulfinic acid was prepared by addition of hydrogen peroxide (5 equivalents of a 10 M solution) to MMBI (0.1 M) in methanol. The products, MeBI and the ester, were obtained following preparative TLC on silica (Uniplate, Analtech Co., Newark, DL) using 5% methanol/chloroform as eluant.
The following experiment was performed to determine the effect of DMMBI oxidation on LPX activity. LPX (0.1 μM, final concentration) was incubated with hydrogen peroxide (100 μM), iodide ion (5 mM) and DMMBI (100 μM), as indicated in Table 2. After a 100 second incubation at 25° C., an aliquot was diluted 200-fold and the iodide ion oxidation activity determined. Values shown in Table 2, are averages +/- standard deviations (n=4) of the percentage relative to untreated LPX.

LPX [4] = target: T1, LPX; assay: LPX-catalyzed tyrosine iodination; type: biochemical, bovine
Text: as §1
In this experiment the effect of DMMBI on tyrosine iodination catalyzed by LPX was determined. […]

LPX and TPX = assay: suicide inhibition of peroxidases (summary statements); type: biochemical
[5] = chemical oxidation stoichiometry of thiones; type: physicochemical
Procedure: Oxidation stoichiometries were determined for the thione compounds MBI, MMBI and DMMBI by incubating the thiones with varying amounts of PBA (0-250μM). The rapid reaction (t1/2 <10 s at 25° C.) of benzimidazole-2-thiones with PBA in methanol provided a convenient method for determining oxidation stoichiometry.
Oxidation stoichiometries were determined spectrophoto, metrically, using a Hewlett Packard 8452A diode array spectrophotometer, by measuring thione concentration at 305 nm as a function of PBA concentration. Hydroperoxide content was determined iodometrically. Stoichiometries of substrate consumption/product formation were also determined by addition of limiting amounts of PBA to 100 μM MBI or MMBI in 50% methanol/pH 7 phosphate. The disappearance of thione and the production of BI, MeBI and bisulfite ion was determined after one hour at 25° C. The production of bisulfite ion was measured […]. The production of sulfate ion was determined by ion chromatography using a AS4A column (Dionex Co., Sunnyvale, CA) with a Dionex Gradient Pump Module and a Dionex CDM II conductivity detector equipped with an AMMS suppressor using 3 mM carbonate/bicarbonate buffer pH 10 as eluant at 2.0 ml/min. Reaction products were also monitored by ^1 H NMR performed at 300 MHz using a Nicolet NT300 or General Electric QE300 spectrometer DSS as a reference.

remaining activity at 100 µM (LPX [3]; LPX + DMMBI): 100 ± 4%
remaining activity at 100 µM (LPX [3]; LPX + H2O2 + DMMBI + I-): 107 ± 6%
remaining activity at 100 µM (LPX [3]; LPX + H2O2 + DMMBI): 104 ± 6%
tyrosine iodination (LPX [4]): inhibits tyrosine iodination
equivalents of oxidant required ([5]; PBA or hydrogen peroxide, aqueous medium, products DMeBI+ and sulfate): 3 equivalents
moles of oxidant required for total reaction ([5]; PBA, FIG. 4): three
equivalents of hydroperoxide required per mole of thione ([5]; hydroperoxides): 3 equivalents
SMILES: Cn1c(=S)n(C)c2ccccc21 [DMMBI, 1,3-dimethylbenzimidazole-2-thione]
effect on rate of enzymatic oxidation of guaiacol or ABTS (LPX [1]): did not reduce the rate of enzymatic oxidation; also recorded: does not affect LPX or TPX/hydrogen peroxide-catalyzed oxidation of the substrates ABTS and guaiacol
inhibition of iodide ion oxidation (triiodide formation) (LPX [2]; LPX, H2O2, iodide ion): marked inhibition of iodide ion oxidation; also recorded: inhibits only iodide ion oxidation
lag period (LPX [2]; dependence on DMMBI concentration): proportional to the concentration of DMMBI
loss of enzymatic activity (LPX [3]; LPX/hydrogen peroxide, absence of iodide ion): did not cause any loss of enzymatic activity
loss of enzymatic activity (LPX [3]; iodide ion present, DMMBI converted to DMeBI+, 1/200 dilution): no loss of enzymatic activity was detected
selectivity for iodide ion oxidation (LPX and TPX; alternate substrate mechanism): block only reactions involving iodide ion oxidation
suicide inhibition (LPX and TPX; summary of own examples): not suicide inhibitors

— US5371102A, “Compositions and methods of inhibiting thyroid activity” (priority 1993, dated 1994)
